Assay results as given in US6949682B2, “Cinnamaldehyde derivatives inhibiting growth of tumor cell and regulating cell cycle, preparations and pharmaceutical compositions thereof” (Korea Research Institute of Bioscience and Biotechnology, priority 2003, dated 2005).

What was measured:
[1] = system: HCT116 colon cancer cell; experiment: Growth inhibition of HCT116 colon cancer cell (GI50); format: cell-based, human; conditions: concentration at which growth of HCT116 colon cancer cell was inhibited to the 50%
Method: (§1) Colon cancer cell of human SW620(ATCC) or HCT116 (ATCC) was transferred to T25 flask(culture 7.5 ml) by RPMI1640 (Gibco/BR) medium or DMEM medium (Gibco/BR) containing 10% FBS (fetal bovine serum), respectively. Thereafter the cell was incubated for 12 hours at 37° C. in incubator. After the cell was incubated for 12 hours, 7.5 μl of DMSO was added to a culture used as control group, for the final concentration to be 0.1%. In order to use in experiment, samples of various concentrations were prepared by dissolving the cinnamaldehyde derivatives of the present invention in DMSO. 7.5 μl of the prepared samples was added to a culture used as experimental group. Cell of control or experimental group was incubated for 48 hours.
(§2) HCT116 GI50 (μM) and SW620 GI50 (μM) mean to be the concentrations at which growth of HCT116 and SW620 colon cancer cell was inhibited to the 50%, respectively.

[2] = system: SW620 colon cancer cell; experiment: Growth inhibition of SW620 colon cancer cell (GI50); format: cell-based, human; conditions: concentration at which growth of SW620 colon cancer cell was inhibited to the 50%
Method: as §1, §2

[3] = system: SW620 colon cancer cell; experiment: Cell cycle analysis (Experimental Example 1), SW620; format: cell-based, human; conditions: SW620, 1 μM, 48 hours, percentage of cells in G2/M
Method: as §1
(§3) For cell cycle analysis, incubated cell was removed from medium. Thereafter the incubated cell was separated from the flask by trypsin. Thus the cell was centrifuged at 300 g for 5 min. The cell was washed with phosphate buffer solution (PBS) to remove the residue medium from the cell. 3 ml of ethanol (70%) was added to the cell. The cell was fixed by being positioned at −20° C. for 12 hours. The fixed cell was centrifuged at 300 g for 3 min and washed with the cold PBS for two times to remove residual ethanol. The cell solution prepared by adding 500 μl of PBS to the cell was well mixed to produce the homogeneous state. 100 μg/ml RNase A 50 μl was added to the cell solution, thereafter the resulting cell solution was positioned at 37° C. for 30 min. The chromosomal DNA was stained by further adding 1 mg/ml propidium iodide (soluble in PBS) thereto.
(§4) Distribution of cell cycle of 20,000 stained cells were measured by using Becton-Dickinson FACS caliber (San Jose, Calif., USA).

[4] = system: HCT116 colon cancer cell; experiment: Cell cycle analysis (Experimental Example 1), HCT116; format: cell-based, human; conditions: HCT116, 1 μM, 48 hours, percentage of cells in G2/M
Method: as §1, §3, §4

| SMILES | GI50 ([1]; Homo sapiens, HCT-116) [µM] | GI50 ([2]; Homo sapiens, SW-620) [µM] | melting point [°C] | GI50 [1] [µM] | GI50 [2] [µM] | G2/M at 1 μM(%) SW620 [3] [%] | G2/M at 1 μM(%) HCT116 [4] [%] |
| --- | --- | --- | --- | --- | --- | --- | --- |
| CC(C)Oc1ccc(C=C(C=O)C(C=O)=Cc2ccc(OC(C)C)cc2)cc1 [Compound 29, 2,3-bis-(4-isopropyloxy-benzylidene)succinaldehyde] | 0.82 | 1.06 | 200 to 202 | – | – | 47 | 49 |
| O=CC(=Cc1ccccc1Br)C(C=O)=Cc1ccccc1Br [Compound 4, 2,3-bis-(2-bromobenzylidene)succinaldehyde] | 1.05 | 2.14 | 194 to 195 | – | – | 36 | 38 |
| O=CC(=Cc1ccccc1OCc1ccc(Br)cc1)C(C=O)=Cc1ccccc1OCc1ccc(Br)cc1 [Compound 18, 2,3-bis-(2-(4-bromobenzyloxy)-benzylidene)succinaldehyde] | 2.63 | 4.64 | 210 to 211 | – | – | 70 | 75 |
| O=CC(=Cc1ccc(OCc2ccccc2)cc1)C(C=O)=Cc1ccc(OCc2ccccc2)cc1 [Compound 31, 2,3-bis-(4-benzyloxy-benzylidene)succinaldehyde] | 3.58 | 7.38 | 119 to 120 | – | – | 62 | 64 |
| CCCOc1ccc(C=C(C=O)C(C=O)=Cc2ccc(OCCC)c(OC)c2)cc1OC [Compound 23, 2,3-bis-(4-propyloxy-3-methoxybenzylidene)succinaldehyde] | 0.62 | 2.28 | 95 to 96 | – | – | 56 | 50 |
| COc1cc(C=C(C=O)C(C=O)=Cc2ccc(OC(=O)c3ccccc3)c(OC)c2)ccc1OC(=O)c1ccccc1 [Compound 27, 2,3-bis-(4-benzoyloxy-3-methoxy-benzylidene)succinaldehyde] | 2.95 | 13.9 | 107 to 110 | – | – | 77 | 79 |
| COc1cc(C=C(C=O)C(C=O)=Cc2ccc(OC(C)C)c(OC)c2)ccc1OC(C)C [Compound 24, 2,3-bis-(4-isopropyloxy-3-methoxy-benzylidene)succinaldehyde] | 0.71 | 0.91 | 119 to 120 | – | – | 55 | 48 |
| O=CC(=Cc1ccccc1OCc1ccc([N+](=O)[O-])cc1)C(C=O)=Cc1ccccc1OCc1ccc([N+](=O)[O-])cc1 [Compound 19, 2,3-bis-(2-(4-nitrobenzyloxy)-benzylidene)succinaldehyde] | 5.19 | 7.09 | 116 to 117 | – | – | 39 | 32 |
| O=CC(=Cc1ccccc1OCc1ccc(Cl)cc1)C(C=O)=Cc1ccccc1OCc1ccc(Cl)cc1 [Compound 17, 2,3-bis-(2-(4-chlorobenzyloxy)-benzylidene)succinaldehyde] | 0.84 | 0.54 | 186 to 187 | – | – | 76 | 71 |
| CCCCC(=O)Oc1ccc(C=C(C=O)C(C=O)=Cc2ccc(OC(=O)CCCC)c(OC)c2)cc1OC [Compound 26, 2,3-bis-(4-valeryloxy-3-methoxy-benzylidene)succinaldehyde] | 11.2 | 54 | – | – | – | 47 | 46 |
| COc1ccc(C=C(C=O)C(C=O)=Cc2ccc(OC)cc2)cc1 [Compound 12, 2,3-bis-(4-methoxy-benzylidene)succinaldehyde] | 9.62 | 10.2 | 204 to 207 | – | – | 57 | 59 |
| O=CC(=Cc1ccc(OC(=O)c2ccccc2F)cc1)C(C=O)=Cc1ccc(OC(=O)c2ccccc2F)cc1 [Compound 33, 2,3-bis-(4-(2-fluorobenzoyloxy)benzylidene)succinaldehyde] | 7.43 | 5.57 | 197 to 199 | – | – | 71 | 72 |
| O=CC(=Cc1ccc(Cl)cc1)C(C=O)=Cc1ccc(Cl)cc1 [Compound 9, 2,3-bis-(4-chlorobenzylidene)succinaldehyde] | 3.62 | 24.2 | 172 to 173 | – | – | 67 | 63 |
| Cc1ccc(C=C(C=O)C(C=O)=Cc2ccc(C)cc2)cc1 [Compound 11, 2,3-bis-(4-methyl-benzylidene)succinaldehyde] | 1.03 | 5.17 | 177 to 178 | – | – | 44 | 40 |
| CCCOc1ccc(/C=C(C=O)/C(C=O)=C/c2ccc(OCCC)cc2)cc1 [Compound 28, 2,3-bis-(4-propyloxybenzylidene)succinaldehyde] | 0.82 | 0.55 | – | – | – | 70 | 72 |

Further lines, with some results ahead:

| GI50 ([1]; Homo sapiens, HCT-116) [µM] | GI50 ([2]; Homo sapiens, SW-620) [µM] | melting point [°C] | GI50 [1] [µM] | GI50 [2] [µM] | SMILES | G2/M at 1 μM(%) SW620 [3] [%] | G2/M at 1 μM(%) HCT116 [4] [%] |
| --- | --- | --- | --- | --- | --- | --- | --- |
| 5.34 | 5.34 | 109 to 110 | – | – | CC(C)Oc1ccccc1C=C(C=O)C(C=O)=Cc1ccccc1OC(C)C [Compound 15, 2,3-bis-(2-isopropyloxy-benzylidene)succinaldehyde] | 69 | 70 |
| 1.36 | 1.02 | 244 to 246 | – | – | O=CC(=Cc1ccc(O)cc1)C(C=O)=Cc1ccc(O)cc1 [Compound 10, 2,3-bis-(4-hydroxy-benzylidene)succinaldehyde] | 65 | 61 |
| 7.87 | 3.53 | 177 to 178 | – | – | COc1cc(C=C(C=O)C(C=O)=Cc2ccc(O)c(OC)c2)ccc1O [Compound 7, 2,3-bis-(4-hydroxy-3-methoxy-benzylidene)succinaldehyde] | 38 | 30 |
| 17.7 | 66.3 | 149 to 151 | – | – | COc1cc(C=C(C=O)C(C=O)=Cc2ccc(OC(C)=O)c(OC)c2)ccc1OC(C)=O [Compound 25, 2,3-bis-(4-acetyloxy-3-methoxy-benzylidene)succinaldehyde] | 48 | 43 |
| 4.02 | 10.7 | 141 to 142 | – | – | O=CC(=Cc1ccccc1F)C(C=O)=Cc1ccccc1F [Compound 2, 2,3-bis-(2-fluorobenzylidene)succinaldehyde] | 58 | 48 |
| 5.28 | 2.11 | 109 to 110 | – | – | CCCOc1ccccc1/C=C(C=O)/C(C=O)=C/c1ccccc1OCCC [Compound 13, 2,3-bis(2-propyloxy-benzylidene)succinaldehyde] | 62 | 65 |
| 3.62 | 90.6 | 107 to 108 | – | – | O=CC(=Cc1cccc(Cl)c1)C(C=O)=Cc1cccc(Cl)c1 [Compound 6, 2,3-bis-(3-chlorobenzylidene)succinaldehyde] | 66 | 60 |
| 5.49 | 10.5 | 149 to 150 | – | – | COc1ccc(C=C(C=O)C(C=O)=Cc2ccc(OC)c(OC)c2)cc1OC [Compound 8, 2,3-bis-(3,4-dimethoxybenzylidene)succinaldehyde] | 75 | 71 |
| 4.23 | 0.61 | 116 to 117 | – | – | CC(C)Oc1cccc(C=C(C=O)C(C=O)=Cc2cccc(OC(C)C)c2)c1 [Compound 21, 2,3-bis-(3-isopropyloxy-benzylidene)succinaldehyde] | 74 | 75 |
| – | – | – | 21 | 65 | CCCCC(=O)Oc1ccc(C=C(C=O)C(C=O)=Cc2ccc(OC(=O)CCCC)cc2)cc1 [Compound 30, 2,3-bis-(4-valeryoxy-benzylidene)succinaldehyde] | 65 | 63 |
